Measured values as given in PubChem BioAssay AID179 (DTP/NCI, 2004).
Active and inactive are the calls of the source.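 The calls were made as follows: active = compounds giving half or more protection of infected cells from virus-caused growth loss, again on retest; inactive = the rest.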

Tested on: CEM cells HIV-1 protection, formazan growth assay
Test: NCI AIDS Antiviral Assay
Conditions: for IC50: measured here: growth of uninfected CEM cells
Outline: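 Category rules: moderately active means at least 50% protection on retest, and confirmed active means 100% protection reproducibly. The underlying data came from a formazan growth assay in HIV-1-infected CEM cells.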

Row | Compound | EC50 [µM] | IC50 [µM] | outcome
1 | CC[C@]1(Cc2ccc(OC)c(OC)c2)[C@@H]2C[C@@H](C(=O)OC)ON2O[C@H](OC2CCCC2(c2ccccc2)c2ccccc2)[C@@H]1OC(C)=O (stereo not given in full) | > 200 | 21.4 | –
2 | COc1cc2c(cc1OC)C1OC(c3cc(OC)c(OC)cc3C1OC(C)=O)C2OC(C)=O (stereo not given) | > 50.1 | > 50.1 | –
3 | O=C1NC(=O)N2CC(CI)OC2C1c1ccccc1 (stereo not given) | > 97.7 | > 97.7 | –
4 | CN1CC2CN(Cc3ccccc3)CCN2c2cccnc21 (stereo not given) | > 200 | 81.3 | –
5 | CCCCNC(=O)Sc1ccccc1C(=O)N[C@H](C)C(N)=O | 1.12 | 112 | –
6 | CCCCC(C(=O)CCC(=O)Nc1ccc(Cl)cc1)C(=O)C(C)C (stereo not given) | > 186 | > 186 | –
7 | O=C(Nc1ccccc1)[C@H](O)[C@@H](O)C(=O)Nc1ccccc1 | > 60.3 | 49 | –
8 | COC(=O)C12C=CC(C(=O)OC)(CC1)n1c(=O)n(-c3ccccc3)c(=O)n12 | > 200 | > 200 | –
9 | N#Cc1nsnc1-c1nc(-c2nsnc2C#N)nc(-c2nsnc2C#N)n1 | > 200 | 141 | –
10 | CC1=CC(=O)c2cccc(NC3=NCCO3)c21 | > 200 | 72.4 | –
11 | CCOC(=O)c1nc2ccc(C(F)(F)F)cc2nc1Oc1cc(OC)cc(OC)c1 | > 200 | > 200 | –
12 | CCOP(=S)(N/N=C1/C2(C)CCC(C2)C1(C)C)OCC (stereo not given) | > 200 | 20 | –
13 | O=C(N1CCCC1)C1(c2cccc(Cl)c2)CCNCC1 | > 200 | 129 | –
14 | C=CCNC(=S)N1CC(C)C(=O)Nc2cc(Cl)ccc21 (stereo not given) | > 200 | > 200 | –
15 | NC(=O)CCC(N=c1c2ccccc2n(O)c2ccccc12)C(=O)O (stereo not given) | – | – | inactive
16 | Cc1cc(C)c2c(c1)CC2NC(=O)Cc1ccccc1 (stereo not given) | > 26.9 | > 26.9 | –
17 | CC1(C)OC2OC3C4COC(SSC56OCC(O5)C5OC7OC(C)(C)OC7C5O6)(O4)OC3C2O1 (stereo not given) | > 200 | 26.3 | –
18 | O=Cc1ccccc1OCCCC[P+](c1ccccc1)(c1ccccc1)c1ccccc1 | > 200 | 2.82 | –
19 | CC1(C(=O)O)CCC2(C)CCC3(C)C(=CC(=O)C4C5(C)CCC(OC6OC(C(=O)O)C(O)C(O)C6OC6OC(C(=O)O)C(O)C(O)C6O)C(C)(C)C5CCC43C)C2C1 (stereo not given) | > 302 | > 302 | –
20 | CC1(C)C[C@@H]2C1CCC1(C)CC2(O)CC[C@H]1O (stereo not given in full) | > 200 | > 200 | –
21 | O=C1C2C(C(=O)N1c1ccccc1)C1c3ccccc3C2C2C(=O)N(c3ccccc3)C(=O)C21 (stereo not given) | – | – | inactive
22 | COC(=O)C(=O)C(C(=O)C(=O)Nc1ccc(Cl)cc1C)c1nc2ccc(C(=O)c3ccccc3)cc2[nH]c1=O (stereo not given) | – | – | inactive

Row | Compound | EC50 [µM] | IC50 [µM] | outcome
23 | COc1cc2c(cc1OC)C(Cc1ccc(O)cc1)N(C)CC2 (stereo not given) | – | – | inactive
24 | Cc1ccnc(NC(=S)Nc2ccc([N+](=O)[O-])cc2)c1 | > 200 | > 200 | –
25 | Cc1occc1C(=S)Nc1ccc(Cl)c(/C=N/OC2CCCC2)c1 | 0.174 | 14.5 | –
26 | O=[N+]([O-])c1ccc(N2N=C(c3ccc4ccccc4c3O)CC2c2ccc(Cl)cc2)c([N+](=O)[O-])c1 (stereo not given) | > 200 | 43.7 | –
27 | N#CC12C(=N)CCC1C1CC2C2C3C=CC(C3)C12 (stereo not given) | > 200 | > 200 | –
28 | COc1ccc2nc3cc(Cl)ccc3c(NCCNC(=O)Cn3c(=O)n(C)c(=O)c4c3nc3c(c(=O)n(C)c(=O)n3C)[n+]4[O-])c2c1 | > 100 | 39.8 | –
29 | O=C(Nc1ccccc1C(=O)O)/C(=C/c1ccccc1)NC(=O)c1ccccc1 | > 200 | > 200 | –
30 | COc1cccc(N=N/C(=N/NC(=O)c2cc(Cl)ccc2O)c2ccc(N(CCC#N)CCC#N)cc2C)c1 | > 200 | 29.5 | –
31 | Cc1cccc(NP2(=O)NCCCN2)c1 | 316 | 398 | –
32 | CCN(CC)C(=C(C(Cl)=C(Cl)Cl)[N+](=O)[O-])N(CC)CC | > 200 | 117 | –
33 | CCOc1ccccc1NC(=O)C(=O)Cc1nc2ccccc2s1 | – | – | inactive
34 | O=S(=O)(N(c1ccc(Cl)cn1)S(=O)(=O)C(F)(F)F)C(F)(F)F | > 200 | > 200 | –
35 | O=[N+]([O-])c1ccc(SSc2ccc([N+](=O)[O-])cc2)cc1 | > 200 | 24 | inactive
36 | O=C1c2cc(O)c(O)cc2O[C@H](c2ccc(O)c(O)c2)[C@H]1O | > 200 | 170 | –
37 | Cn1c2ccccc2c2cc(-c3ccccc3)c3c(c21)C(=O)C=CC3=O | > 77.6 | 2.57 | –
38 | CCOC(=O)c1ccccc1-c1c2cc(Br)c(=O)c(Br)c-2oc2c(Br)c(O)c(Br)cc12 | > 200 | 12 | –
39 | Cc1ccc(C=C(C(=O)O)C(=O)O)o1 | 145 | > 200 | –
40 | Cc1ccc(/C=N/Nc2ccc3ccccc3n2)s1 | > 200 | 21.4 | –
41 | CC(=O)CCCCCCCCCCCC[C@@H]1CC[C@H](C)[C@H](O)N1 | > 21.9 | > 21.9 | –
42 | Cc1cn(C2CC(N=[N+]=[N-])C(COC(=O)[C@@]3(O)CCC4C5CCC6=CC(=O)C=C[C@]6(C)C5[C@@H](O)C[C@@]43C)O2)c(=O)[nH]c1=O (stereo not given in full) | 1.15 | 22.9 | –
43 | O=C1NC(=O)C(C(=O)C(=O)Nc2cc(Cl)ccc2Cl)C(=O)N1 | > 380 | 302 | –
44 | Cn1c(=O)c(C(=O)NC(=O)NCCCCCOC(=O)CCCCCCCCCCC(=O)OCCCCCNC(=O)NC(=O)c2cn(Cc3ccccc3)c(=O)n(C)c2=O)cn(Cc2ccccc2)c1=O | > 7.41 | > 7.41 | –

Row | Compound | EC50 [µM] | IC50 [µM] | outcome
45 | CC(=O)OCC1OC(n2c(-c3ccc(Cl)cc3)cc(-c3ccccc3)c(C#N)c2=S)C(OC(C)=O)C(OC(C)=O)C1OC(C)=O (stereo not given) | > 200 | 145 | –
46 | CC(=O)OC1C=C(C=O)C(O)(C=O)C2(C)CCCC(C)(C)C12 (stereo not given) | > 200 | 8.13 | –
47 | Clc1nc(Cl)nc(NC23CC4CC(CC(C4)C2)C3)n1 | > 200 | 107 | –
48 | N#Cc1c(N)nc2c(N=Nc3ccccc3)c(N)nn2c1Nc1ccccc1 | > 200 | 9.55 | –
49 | COC(=O)c1c2c(cc3c1CC1(Cc4cc5c(c(C=O)c4C1)CCCC5)C3)CCCC2 (stereo not given) | > 200 | 24.5 | –
50 | CCOC(=O)C1SC(=Nc2ccc(Cl)cc2Cl)N=C1C (stereo not given) | – | – | inactive
51 | COC(=O)C1(Cc2ccccc2)Cc2ccccc2C1O (stereo not given) | > 200 | 91.2 | –
52 | CCCC[C@H]1[C@@H](OCOc2ccccc2)COC(=O)N1[C@H](C)c1ccccc1 | > 200 | 21.4 | –
53 | CCOC(=O)c1cc2c3c(cc(OC)c2[nH]1)N(C(=O)OCC)CC3 | > 100 | > 100 | –
54 | CCN(CC)CC.CCOc1ccc(NC(=O)N=C=[N-])cc1.[CH-]1CCCCC1.[CH-]1CCCCC1.[CH-]1CCCCC1.[Cl-].[Sn+4] | – | – | inactive
55 | CN1C(=O)CC2(C)c3cc(C=O)ccc3N(C)C12 (stereo not given) | – | – | inactive
56 | Cc1cc(=O)oc2c1cc1ccc3cccc4ccc2c1c34 | – | – | inactive
57 | CN(C)c1ccc(/C=C(\C#N)c2ccc(Br)cc2)cc1 | > 100 | 1.35 | –
58 | CC1=Nc2ccccc2SC2(C1)C(C1COC(C)(C)O1)OC1OC(C)(C)OC12 (stereo not given) | > 74.1 | 63.1 | –
59 | O=C1CSC(=S)N1c1ccccc1 | > 240 | 178 | –
60 | COC1=C(C(=O)OC(C)(C)C)C2C(C(=O)OC(C)(C)C)C(OC)=C(C(=O)OC(C)(C)C)C2C1C(=O)OC(C)(C)C (stereo not given) | > 31.6 | 17 | –
61 | CN1CCCCCC(=N\O)/C(=N/O)CCCCC1 | > 977 | > 977 | –
62 | Cc1cc(S(=O)(=O)Nc2n[nH]c(N)n2)c(Cl)cc1Cl | > 200 | > 200 | –
63 | c1ccc(C2=NN(c3ccccc3)CC2)cc1 | – | – | inactive
64 | c1ccc([P+](CCCCCCCCCC[P+](c2ccccc2)(c2ccccc2)c2ccccc2)(c2ccccc2)c2ccccc2)cc1 | > 200 | 0.589 | –
65 | COC(=O)C(=O)CC(=O)CCn1[nH]c(=O)c(Cl)c(Cl)c1=O | > 389 | 295 | –
66 | CCN(CC)CCNc1ccc(CO)c2oc3ccc(O)cc3c(=O)c12 | > 191 | 1.32 | –

Row | Compound | EC50 [µM] | IC50 [µM] | outcome
67 | N#Cc1cccc(/C=C/C(=O)c2ccccc2)c1 | > 22.4 | 4.07 | –
68 | COc1ccc(CC2Cc3ccccc3CCN2)cc1OC (stereo not given) | – | – | inactive
69 | Cn1c(COC(=O)NC2CCCCC2)c(COC(=O)NC2CCCCC2)c2ccc3ccccc3c21 | > 174 | 2.82 | –
70 | N=c1c2c(C(N)=O)cn(C3OC(CO)C(O)C3O)c2ncn1O (stereo not given) | > 0.2 | 0.191 | –
71 | O=C(Cn1c(=O)oc2ccc(C(=O)c3ccc(F)cc3)cc21)c1ccccc1 | > 200 | 123 | –
72 | CCCCc1ccc(Nc2ncc3ncn(COCCO)c3n2)cc1 | > 200 | 51.3 | –
73 | COc1ccc2nc(C)cc(NCCCCCCCCCNc3cc(C)nc4ccc(OC)cc34)c2c1 | > 33.1 | 0.891 | –
74 | N#CC(C#N)=c1ccc(=C(C#N)C#N)c2nsnc12 | > 38 | > 38 | –
75 | COC(=O)C1(CCC(=O)N(C)c2ccccc2)NNC2C(=O)N(c3ccccc3)C(=O)C21 (stereo not given) | > 200 | > 200 | –
76 | CCOC(=O)N1CCC2(CC1)CC(=O)N(Nc1ccccc1)C2=O | > 200 | 36.3 | –
77 | N#CC(C#N)=CNC(N)=S | > 200 | > 200 | –
78 | Cc1cn(C2CC(O)C(CN(O)CCC3CC(n4cc(C)c(=O)[nH]c4=O)OC3CO)O2)c(=O)[nH]c1=O (stereo not given) | > 200 | > 200 | –
79 | Cc1cc(Cl)nc(Nc2nc3ccccc3[nH]2)n1 | > 200 | > 200 | –
80 | CC(C)(C)C(=O)/C=C/c1ccc(-c2ccccc2)cc1 | > 19.5 | > 19.5 | –
81 | N#Cc1cnc2nc1NCCCCCCC2 | > 204 | 132 | –
82 | COc1cc2c(cc1OC)[N+]1(C)CCC3OCCC4C[N+]5(C)CCC26C5CC4C3C61 (stereo not given) | > 372 | > 372 | –
83 | COC(=O)C1C(C(=O)OC)N(Cc2ccccc2)C(=O)N1Cc1ccccc1 (stereo not given) | > 200 | 120 | –
84 | CCOC(=O)C1c2[nH]c3ccccc3c2CCN1C(=O)c1ccc(OC)o1 (stereo not given) | > 51.3 | 38.9 | –
85 | COC(=O)C(=O)C(C(C)=O)C(=O)C(=O)Nc1ccc(C)cc1C (stereo not given) | > 112 | > 112 | –
